The values below come from PubChem BioAssay (NCI).

The structures appear in SMILES notation. Values joined by “and” are separate entries in the source; they are usually repeats but may differ in a detail not shown here. Equal values may be shown once.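 All cell lines were grown in 96-well plates and treated with compound for 48 hours. Here, GI50 denotes the concentration required for 50% inhibition of growth. The concentration for full growth arrest is given as TGI.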 Where a SMILES comes first, the peptide text is derived from it. [ ]: non-standard residue; d: D form. The star is where a group is joined. ξ: configuration not given here. NMeN = CN[C@@H](CC(N)=O)C(=O)O; NMeV = CN[C@H](C(=O)O)C(C)C; ξNMeV = CNC(C(=O)O)C(C)C; Boc = CC(C)(C)OC(=O)*; ξNMeA = CNC(C)C(=O)O A value given as a limit tells only on which side of the number the result lay.

Some test systems named below: SF-539 CNS; ACHN renal; M14 melanoma; A498 renal; COLO 205 colon; MOLT-4 leukemia; HCT-15 colon; RPMI-8226 leukemia; CCRF-CEM leukemia; OVCAR-5 ovarian.
Holding throughout (experiment): NCI anticancer screen, dose series, 48 h

With `O=P([O-])(O)OP(=O)([O-])O.[NH-][C@@H]1CCCC[C@H]1[NH-].[Pt+4]`, the GI50 in the assay with SF-539 CNS is 18.6 µM and 8.47 µM; in the assay with ACHN renal, 4.78 µM and 5.63 µM; with M14 melanoma, 38.9 µM and 14.8 µM; with A498 renal, > 100 µM and 18.3 µM; with COLO 205 colon, 6.13 µM and 6.32 µM; in the assay on MOLT-4 leukemia, 5.9 µM and 3.29 µM. Further, the GI50 in the assay with HCT-15 colon is 11.2 µM and 8.21 µM; with RPMI-8226 leukemia, 13.7 µM and 3.16 µM; with CCRF-CEM leukemia, 13 µM and 6.59 µM; in the assay with OVCAR-5 ovarian, > 52.1 µM and 14.5 µM. In addition, the TGI is above 100 µM in the assay with SF-539 CNS; > 100 µM and 58.2 µM in the assay on ACHN renal; above 100 µM in the assay with M14 melanoma; above 100 µM in the assay with A498 renal; > 100 µM and 21.5 µM with COLO 205 colon; above 100 µM in the assay on MOLT-4 leukemia. The TGI with HCT-15 colon, in the assay on RPMI-8226 leukemia, with CCRF-CEM leukemia and in the assay with OVCAR-5 ovarian was above 100 µM in each case.
In the case of `C=C1C(=O)[C@@]23CC1C(O)[C@@H](OC(C)=O)[C@@H]2C1(C)C(OC(C)=O)C[C@@H](OC(C)=O)C(C)(C)[C@@H]1C[C@H]3OC(C)=O` (some centres not stated), the GI50 in the assay on SF-539 CNS was 1.69 µM and 3.73 µg/mL; in the assay on ACHN renal it was 4.26 µg/mL; in the assay on M14 melanoma, 2.33 µM and 2.68 µg/mL; in the assay with A498 renal, 16.3 µg/mL; with COLO 205 colon, 1.69 µM and 1.72 µg/mL; in the assay with MOLT-4 leukemia, 1.71 µM and 1.28 µg/mL. Moreover, the GI50 in the assay with HCT-15 colon was 2.69 µg/mL; in the assay on RPMI-8226 leukemia, 1.55 µM and 0.543 µg/mL; in the assay with CCRF-CEM leukemia it was 361 nM and 0.239 µg/mL; with OVCAR-5 ovarian it was > 10 µM and 7.32 µg/mL. Further, the TGI was 3.7 µM and 11.6 µg/mL in the assay on SF-539 CNS; > 10 µM and 16.6 µg/mL in the assay on ACHN renal; > 10 µM and 7.15 µg/mL in the assay with M14 melanoma; > 10 µM and 30.6 µg/mL in the assay on A498 renal; 3.15 µM and 3.26 µg/mL in the assay on COLO 205 colon; 4.1 µM and 4.03 µg/mL in the assay with MOLT-4 leukemia. For the same compound, the TGI in the assay with HCT-15 colon is > 10 µM and 8.61 µg/mL; in the assay with RPMI-8226 leukemia, 4.28 µM and 3.5 µg/mL; in the assay with CCRF-CEM leukemia it was 1.9 µM and 5.21 µg/mL; with OVCAR-5 ovarian it was > 10 µM and 16 µg/mL.
Consider `CCCN1CCN(c2ccc3nc(-c4ccc5nc(-c6cc(OC)ccc6OC)[nH]c5c4)[nH]c3c2)CC1`, for which the GI50 in the assay with SF-539 CNS was 14.4 µM; in the assay on ACHN renal, 1.69 µM; in the assay on M14 melanoma, 1.78 µM; in the assay with A498 renal it was 15.6 µM; in the assay on COLO 205 colon it was 2.17 µM; in the assay on MOLT-4 leukemia it was 2.09 µM. Moreover, the GI50 was 1.74 µM in the assay on HCT-15 colon, 2.17 µM in the assay on RPMI-8226 leukemia, 2.22 µM with CCRF-CEM leukemia and 17.8 µM with OVCAR-5 ovarian. Moreover, the TGI with SF-539 CNS worked out at 28.7 µM; with ACHN renal, 3.06 µM; with M14 melanoma it was 3.31 µM; in the assay with A498 renal, 30.4 µM; in the assay on COLO 205 colon it was 4.83 µM; in the assay on MOLT-4 leukemia, 4.31 µM. Also, the TGI in the assay on HCT-15 colon is 3.36 µM; with RPMI-8226 leukemia it was 4.79 µM; with CCRF-CEM leukemia, 4.49 µM; in the assay with OVCAR-5 ovarian it was 34.2 µM.
Regarding `Cc1ccc(NC(=O)CC(=O)n2nc(-c3ccccc3)c(N=Nc3ccccc3Cl)c2-c2ccccc2)cc1`, the TGI with SF-539 CNS, with ACHN renal, in the assay with M14 melanoma, in the assay with A498 renal, with COLO 205 colon and in the assay on MOLT-4 leukemia was above 100 µM throughout. Also, the TGI in the assay on HCT-15 colon, in the assay on RPMI-8226 leukemia, in the assay with CCRF-CEM leukemia and with OVCAR-5 ovarian was above 100 µM each time. The GI50 in the assay with COLO 205 colon, in the assay on MOLT-4 leukemia, in the assay on HCT-15 colon and in the assay with RPMI-8226 leukemia was above 100 µM throughout.
Take `NC(=O)c1ccc2c(-c3ccnc(NCCCO)n3)c(-c3ccc(F)cc3)nn2c1`: the GI50 in the assay with SF-539 CNS was above 25 µM; in the assay on ACHN renal, above 17.1 µM; in the assay on M14 melanoma, above 25 µM; in the assay on A498 renal it was 7.24 µM; with COLO 205 colon, above 20.6 µM; in the assay on MOLT-4 leukemia, above 25 µM. Further, the GI50 in the assay on HCT-15 colon, in the assay on RPMI-8226 leukemia, in the assay on CCRF-CEM leukemia and in the assay on OVCAR-5 ovarian was above 25 µM in each case. Further, the TGI in the assay with SF-539 CNS, in the assay with ACHN renal, in the assay on M14 melanoma, with A498 renal, with COLO 205 colon and in the assay on MOLT-4 leukemia was above 25 µM in each case. In addition, the TGI with HCT-15 colon, with RPMI-8226 leukemia, in the assay with CCRF-CEM leukemia and in the assay on OVCAR-5 ovarian was above 25 µM throughout.
For `COC(=O)C(C)N(C)C(=O)[C@H](CC(N)=O)N(C)C(=O)[C@@H]1CCCN1C(=O)[C@H](C(C)C)N(C)C(=O)C(C(C)C)N(C)C(=O)[C@@H](NC(=O)OC(C)(C)C)C(C)C` (some centres not stated) (Boc-V[ξNMeV][NMeV]P[NMeN][ξNMeA]-OMe), the GI50 in the assay with SF-539 CNS was above 100 µM; with ACHN renal, above 100 µM; in the assay with M14 melanoma, above 100 µM; in the assay with A498 renal, above 100 µM; in the assay with COLO 205 colon, 34.9 µM; in the assay with MOLT-4 leukemia, above 100 µM. In addition, the GI50 in the assay on CCRF-CEM leukemia was 65.7 µM; with OVCAR-5 ovarian it was above 100 µM. Further, the TGI with SF-539 CNS was above 100 µM; in the assay on ACHN renal it was above 100 µM; with M14 melanoma it was above 100 µM; in the assay on A498 renal, above 100 µM; with COLO 205 colon it was above 100 µM; in the assay with MOLT-4 leukemia it was 38.9 µM and > 100 µM. Further, the TGI in the assay with HCT-15 colon, in the assay with RPMI-8226 leukemia, in the assay with CCRF-CEM leukemia and with OVCAR-5 ovarian was above 100 µM each time.
Take `COC(=O)c1c2c(c(C)[n+]([O-])c1C)C(=O)C=C(NCc1ccc(OC)cc1)C2=O`: the GI50 is 1.77 µM in the assay with SF-539 CNS; 1.98 µM in the assay with ACHN renal; 1.92 µM in the assay with M14 melanoma; 1.59 µM in the assay with A498 renal; 0.831 µM in the assay on COLO 205 colon; 1.55 µM in the assay on MOLT-4 leukemia. In addition, the GI50 with HCT-15 colon is 0.962 µM; in the assay with RPMI-8226 leukemia, 2.03 µM; with CCRF-CEM leukemia it was 1.29 µM; in the assay on OVCAR-5 ovarian, 2.3 µM. The TGI in the assay with SF-539 CNS came out at 4.36 µM; in the assay with ACHN renal, 5.23 µM; with M14 melanoma, 4.3 µM; in the assay with A498 renal, 6.21 µM; in the assay with COLO 205 colon, 2.45 µM; with MOLT-4 leukemia, 5.3 µM. The TGI in the assay on HCT-15 colon was 4.19 µM; with RPMI-8226 leukemia, 9.26 µM; in the assay with CCRF-CEM leukemia, 14 µM; with OVCAR-5 ovarian it was 6.13 µM.
